In ChEMBL document CHEMBL1201861, “Genomics of Drug Sensitity in Cancer screening data, Wellcome Trust Sanger Institute”:
pIC50: −log10 of the molar value.

Key:
Assay in all cases: cells
[1] = tested on: SK-NEP-1; format: functional, cell-based; conditions: Homo sapiens;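 also: growth inhibition of human SK-NEP-1 cells, read out by a cell viability assay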
Description: SANGER: Inhibition of human SK-NEP-1 cell growth in a cell viability assay.

[2] = tested on: A253 cell line; format: functional, cell-based, Homo sapiens; conditions: Homo sapiens, A253;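 also: growth inhibition of A253 cells, read out with a cell viability assay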
Description: SANGER: Inhibition of human A253 cell growth in a cell viability assay.

[3] = tested on: Becker; format: functional, cell-based, Homo sapiens; conditions: Homo sapiens, Becker;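 also: growth inhibition of Becker cells, read out with a cell viability assay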
Description: SANGER: Inhibition of human Becker cell growth in a cell viability assay.

[4] = tested on: NY; format: functional, cell-based, Homo sapiens; conditions: Homo sapiens, NY
Description: SANGER: Inhibition of human NY cell growth in a cell viability assay.

[5] = tested on: SW1573; format: functional, cell-based, Homo sapiens; conditions: Homo sapiens, SW1573;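 also: growth inhibition of SW1573 cells, read out with a cell viability assay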
Description: SANGER: Inhibition of human SW1573 cell growth in a cell viability assay.

[6] = tested on: MDA-MB-175-VII; format: functional, cell-based, Homo sapiens; conditions: Homo sapiens, MDA-MB-175-VII
[7] = tested on: RPMI-8226; format: functional, cell-based; conditions: Homo sapiens
Description: SANGER: Inhibition of human RPMI-8226 cell growth in a cell viability assay.

[8] = tested on: SK-UT-1; format: functional, cell-based, Homo sapiens; conditions: Homo sapiens, SK-UT-1;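 also: growth inhibition of SK-UT-1 cells, measured by a cell viability assay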
Description: SANGER: Inhibition of human SK-UT-1 cell growth in a cell viability assay.

[9] = tested on: MC116; format: functional, cell-based; conditions: Homo sapiens;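 also: growth inhibition of MC116 cells, read out with a cell viability assay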
Description: SANGER: Inhibition of human MC116 cell growth in a cell viability assay.

[10] = tested on: SHP77; format: functional, cell-based, Homo sapiens, SHP-77; conditions: Homo sapiens, SHP77;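 also: growth inhibition of human SHP-77 cells measured by a cell viability assay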
Description: SANGER: Inhibition of human SHP-77 cell growth in a cell viability assay.

[11] = tested on: SJSA-1; format: functional, cell-based, Homo sapiens; conditions: Homo sapiens, SJSA-1;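 also: growth inhibition of human SJSA-1 cells, read out through a cell viability measurement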
Description: SANGER: Inhibition of human SJSA-1 cell growth in a cell viability assay.

[12] = tested on: P30-OHK; format: functional, cell-based; conditions: Homo sapiens;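 also: growth inhibition of the P30-OHK cell line, read out with a cell viability assay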
Description: SANGER: Inhibition of human P30-OHK cell growth in a cell viability assay.

[13] = tested on: A498; format: functional, cell-based, Homo sapiens; conditions: Homo sapiens, A498;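 also: growth inhibition of human A498 cells, read out with a cell viability assay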
Description: SANGER: Inhibition of human A498 cell growth in a cell viability assay.

[14] = tested on: A4-Fuk; format: functional, cell-based; conditions: Homo sapiens;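 also: growth inhibition of A4-Fuk cells, read out by a cell viability assay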
Description: SANGER: Inhibition of human A4-Fuk cell growth in a cell viability assay.

[15] = tested on: LS-513; format: functional, cell-based, Homo sapiens; conditions: Homo sapiens, LS-513
Description: SANGER: Inhibition of human LS-513 cell growth in a cell viability assay.

[16] = tested on: SCC-15; format: functional, cell-based, Homo sapiens; conditions: Homo sapiens, SCC-15;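 also: growth inhibition of SCC-15 cells, read out with a cell viability assay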
Description: SANGER: Inhibition of human SCC-15 cell growth in a cell viability assay.

[17] = tested on: OAW-42; format: functional, cell-based, Homo sapiens; conditions: Homo sapiens, OAW-42;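 also: growth inhibition of OAW-42 cells, read out with a cell viability assay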
Description: SANGER: Inhibition of human OAW-42 cell growth in a cell viability assay.

[18] = tested on: NCI-H209; format: functional, cell-based; conditions: Homo sapiens;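 also: growth inhibition of human NCI-H209 cells, measured by a cell viability assay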
Description: SANGER: Inhibition of human NCI-H209 cell growth in a cell viability assay.

[19] = tested on: 647-V; format: functional, cell-based, Homo sapiens; conditions: Homo sapiens, 647-V;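 also: growth inhibition of 647-V cells, read out with a cell viability assay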
Description: SANGER: Inhibition of human 647-V cell growth in a cell viability assay.

[20] = tested on: H4; format: functional, cell-based; conditions: Homo sapiens
Description: SANGER: Inhibition of human H4 cell growth in a cell viability assay.

[21] = tested on: SF-539; format: functional, cell-based, Homo sapiens; conditions: Homo sapiens, SF-539;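 also: Read-out is a cell viability assay, with IC50 reflecting inhibition of cell growth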
Description: SANGER: Inhibition of human SF539 cell growth in a cell viability assay.

[22] = tested on: HCE-4; format: functional, cell-based, Homo sapiens; conditions: Homo sapiens, HCE-4;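 also: cell viability assay measuring inhibition of growth in the human HCE-4 cell line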
Description: SANGER: Inhibition of human HCE-4 cell growth in a cell viability assay.

[23] = tested on: LB2241-RCC; format: functional, cell-based, Homo sapiens; conditions: Homo sapiens, LB2241-RCC;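 also: cell viability assay measuring how strongly the cultured human renal carcinoma line is prevented from growing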
Description: SANGER: Inhibition of human LB2241-RCC cell growth in a cell viability assay.

[24] = tested on: LB831-BLC; format: functional, cell-based, Homo sapiens; conditions: Homo sapiens, LB831-BLC;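 also: growth inhibition of LB831-BLC cells, read out with a cell viability assay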
Description: SANGER: Inhibition of human LB831-BLC cell growth in a cell viability assay.

[25] = tested on: BB49-HNC; format: functional, cell-based, Homo sapiens; conditions: Homo sapiens, BB49-HNC;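 also: cell viability assay read-out, reported as inhibition of BB49-HNC cell growth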
Description: SANGER: Inhibition of human BB49-HNC cell growth in a cell viability assay.

[26] = tested on: LB373-MEL-D; format: functional, cell-based, Homo sapiens; conditions: Homo sapiens, LB373-MEL-D;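 also: growth inhibition of the cell line, read out in a cell viability assay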
Description: SANGER: Inhibition of human LB373-MEL-D cell growth in a cell viability assay.

[27] = tested on: MHH-PREB-1; format: functional, cell-based; conditions: Homo sapiens;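 also: cell viability assay measuring inhibition of proliferation of human MHH-PREB-1 cells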
Description: SANGER: Inhibition of human MHH-PREB-1 cell growth in a cell viability assay.

[28] = tested on: MSTO-211H; format: functional, cell-based, Homo sapiens; conditions: Homo sapiens, MSTO-211H
Description: SANGER: Inhibition of human MSTO-211H cell growth in a cell viability assay.

[29] = tested on: TCC-SUP; format: functional, cell-based, Homo sapiens; conditions: Homo sapiens, TCC-SUP;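 also: growth inhibition of TCC-SUP cells, read out with a cell viability assay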
Description: SANGER: Inhibition of human TCCSUP cell growth in a cell viability assay.

[30] = tested on: NCI-H1755; format: functional, cell-based, Homo sapiens; conditions: Homo sapiens, NCI-H1755;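 also: cell viability readout used to measure growth inhibition of NCI-H1755 cells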
Description: SANGER: Inhibition of human NCI-H1755 cell growth in a cell viability assay.

[31] = tested on: IST-SL1; format: functional, cell-based, Homo sapiens; conditions: Homo sapiens, IST-SL1;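 also: growth inhibition of human IST-SL1 cells, read out with a cell viability assay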
Description: SANGER: Inhibition of human IST-SL1 cell growth in a cell viability assay.

[32] = tested on: EW-3; format: functional, cell-based; conditions: Homo sapiens;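 also: cell viability assay read-out, IC50 reflects inhibition of growth of the EW-3 cells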
Description: SANGER: Inhibition of human EW-3 cell growth in a cell viability assay.

[33] = tested on: TGW; format: functional, cell-based; conditions: Homo sapiens;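 also: growth inhibition of human TGW cells, read out with a cell viability assay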
Description: SANGER: Inhibition of human TGW cell growth in a cell viability assay.

[34] = tested on: GR-ST; format: functional, cell-based; conditions: Homo sapiens
Description: SANGER: Inhibition of human GR-ST cell growth in a cell viability assay.

[35] = tested on: COLO-679; format: functional, cell-based, Homo sapiens; conditions: Homo sapiens, COLO-679
Description: SANGER: Inhibition of human COLO-679 cell growth in a cell viability assay.

[36] = tested on: EW-24; format: functional, cell-based; conditions: Homo sapiens;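 also: human EW-24 cancer cell line, growth inhibition read out via a cell viability assay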
Description: SANGER: Inhibition of human EW-24 cell growth in a cell viability assay.

[37] = tested on: HTC-C3; format: functional, cell-based, Homo sapiens; conditions: Homo sapiens, HTC-C3;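 also: inhibition of cell growth, read out with a cell viability assay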
Description: SANGER: Inhibition of human HTC-C3 cell growth in a cell viability assay.

[38] = tested on: HC-1; format: functional, cell-based; conditions: Homo sapiens;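 also: growth inhibition of HC-1 cells measured by a cell viability assay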
Description: SANGER: Inhibition of human HC-1 cell growth in a cell viability assay.

[39] = tested on: ML-2; format: functional, cell-based; conditions: Homo sapiens;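 also: growth inhibition of ML-2 cells, measured with a cell viability readout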
Description: SANGER: Inhibition of human ML-2 cell growth in a cell viability assay.

[40] = tested on: SNU-449; format: functional, cell-based, Homo sapiens; conditions: Homo sapiens, SNU-449
Description: SANGER: Inhibition of human SNU-449 cell growth in a cell viability assay.

[41] = tested on: ATN-1; format: functional, cell-based; conditions: Homo sapiens;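 also: growth inhibition of human ATN-1 cells, read out with a cell viability assay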
Description: SANGER: Inhibition of human ATN-1 cell growth in a cell viability assay.

[42] = tested on: DEL; format: functional, cell-based; conditions: Homo sapiens;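 also: growth inhibition of the human DEL cell line, read out with a cell viability assay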
Description: SANGER: Inhibition of human DEL cell growth in a cell viability assay.

[43] = tested on: YKG-1; format: functional, cell-based, Homo sapiens; conditions: Homo sapiens, YKG-1;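 also: cell growth inhibition, read out with a viability assay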
Description: SANGER: Inhibition of human YKG-1 cell growth in a cell viability assay.

[44] = tested on: HL-60; format: functional, cell-based; conditions: Homo sapiens;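 also: growth inhibition of human HL-60 cells, read out with a cell viability assay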
Description: SANGER: Inhibition of human HL-60 cell growth in a cell viability assay.

[45] = tested on: G-401; format: functional, cell-based, Homo sapiens; conditions: Homo sapiens, G-401
Description: SANGER: Inhibition of human G-401 cell growth in a cell viability assay.

[46] = tested on: SW13; format: functional, cell-based, Homo sapiens; conditions: Homo sapiens, SW13;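 also: IC50 is inhibition of SW13 cell growth, read out with a cell viability assay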
Description: SANGER: Inhibition of human SW13 cell growth in a cell viability assay.

[47] = tested on: NCI-H1092; format: functional, cell-based; conditions: Homo sapiens;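 also: cell growth inhibition measured with a cell viability assay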
Description: SANGER: Inhibition of human NCI-H1092 cell growth in a cell viability assay.

[48] = tested on: CAL-62; format: functional, cell-based, Homo sapiens; conditions: Homo sapiens, CAL-62;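 also: growth inhibition of CAL-62 cells, read out with a cell viability assay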
Description: SANGER: Inhibition of human CAL-62 cell growth in a cell viability assay.

[49] = tested on: BCPAP; format: functional, cell-based, Homo sapiens; conditions: Homo sapiens, BCPAP;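 also: growth inhibition of BCPAP cells, read out in a cell viability assay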
Description: SANGER: Inhibition of human BCPAP cell growth in a cell viability assay.

[50] = tested on: JVM-3; format: functional, cell-based; conditions: Homo sapiens;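 also: growth inhibition of human JVM-3 cells, read out with a cell viability assay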
Description: SANGER: Inhibition of human JVM-3 cell growth in a cell viability assay.

[51] = tested on: HuCCT-1; format: functional, cell-based, Homo sapiens, HuCCT1; conditions: Homo sapiens, HuCCT-1;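 also: growth inhibition of HuCCT-1 cells, read out by a cell viability assay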
Description: SANGER: Inhibition of human HuCCT1 cell growth in a cell viability assay.

[52] = tested on: NCI-H1651; format: functional, cell-based, Homo sapiens; conditions: Homo sapiens, NCI-H1651;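 also: Read-out is a cell viability assay, with IC50 expressing inhibition of NCI-H1651 cell growth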
Description: SANGER: Inhibition of human NCI-H1651 cell growth in a cell viability assay.

Which results are given for `C=CCc1cccc(/C=N/NC(=O)CN2CCN(Cc3ccccc3)CC2)c1O` [PAC-1]?
pIC50 [1]: < 5.59; pIC50 [2]: < 5.59; pIC50 [3]: < 5.59; pIC50 [4]: < 5.59; pIC50 [5]: < 5.59; pIC50 [6]: < 5.59; pIC50 [7]: < 5.59; pIC50 [8]: < 5.59; pIC50 [9]: 5.92; pIC50 [10]: < 5.59; pIC50 [11]: 5.63; pIC50 [12]: < 5.59; pIC50 [13]: < 5.59; pIC50 [14]: < 5.59; pIC50 [15]: < 5.59; pIC50 [16]: < 5.59; pIC50 [17]: < 5.59; pIC50 [18]: < 5.59; pIC50 [19]: < 5.59; pIC50 [20]: < 5.59; pIC50 [21]: < 5.59; pIC50 [22]: < 5.59; pIC50 [23]: < 5.59; pIC50 [24]: < 5.59; pIC50 [25]: < 5.59; pIC50 [26]: < 5.59; pIC50 [27]: < 5.59; pIC50 [28]: < 5.59; pIC50 [29]: < 5.59; pIC50 [30]: < 5.59; pIC50 [31]: < 5.59; pIC50 [32]: < 5.59; pIC50 [33]: < 5.59; pIC50 [34]: < 5.59; pIC50 [35]: 6.10; pIC50 [36]: < 5.59; pIC50 [37]: < 5.59; pIC50 [38]: 5.73; pIC50 [39]: < 5.59; pIC50 [40]: < 5.59; pIC50 [41]: < 5.59; pIC50 [42]: < 5.59; pIC50 [43]: < 5.59; pIC50 [44]: < 5.59; pIC50 [45]: 6.00; pIC50 [46]: < 5.59; pIC50 [47]: < 5.59; pIC50 [48]: < 5.59; pIC50 [49]: < 5.59; pIC50 [50]: < 5.59; pIC50 [51]: 5.84; pIC50 [52]: < 5.59

How did the pIC50 [1] turn out when `Cc1ccc(Nc2nccc(N(C)c3ccc4c(C)n(C)nc4c3)n2)cc1S(N)(=O)=O` [PAZOPANIB] was run?
Its pIC50 is less than 5.10.

What about the pIC50 [2] of the same compound?
The pIC50 was less than 5.10.

What about the pIC50 [3] of the same compound?
Its pIC50 is less than 5.10.

What about the pIC50 [4] of the same compound?
Its pIC50 is 5.73.

And the pIC50 [5]?
The pIC50 was less than 5.10.

And the pIC50 [6]?
The pIC50 was less than 5.10.

What about the pIC50 [7] of the same compound?
Its pIC50 is less than 5.10.

And the pIC50 [8]?
The pIC50 was less than 5.10.

And the pIC50 [9]?
The pIC50 was less than 5.10.

What about the pIC50 [10] of the same compound?
The pIC50 was less than 5.10.

And the pIC50 [11]?
Its pIC50 is less than 5.10.

What about the pIC50 [12] of the same compound?
The pIC50 was 5.26.

And the pIC50 [13]?
The pIC50 was less than 5.10.

And the pIC50 [14]?
Its pIC50 is less than 5.10.

And the pIC50 [15]?
The pIC50 was less than 5.10.

And the pIC50 [16]?
Its pIC50 is less than 5.10.

And the pIC50 [17]?
The pIC50 was less than 5.10.

What about the pIC50 [18] of the same compound?
Its pIC50 is less than 5.10.

What about the pIC50 [19] of the same compound?
The pIC50 was less than 5.10.

And the pIC50 [20]?
Its pIC50 is 5.60.

What about the pIC50 [21] of the same compound?
The pIC50 was less than 5.10.

What about the pIC50 [22] of the same compound?
Its pIC50 is less than 5.10.

What about the pIC50 [23] of the same compound?
The pIC50 was less than 5.10.

What about the pIC50 [24] of the same compound?
Its pIC50 is 5.59.

What about the pIC50 [25] of the same compound?
Its pIC50 is less than 5.10.

And the pIC50 [26]?
The pIC50 was less than 5.10.

And the pIC50 [27]?
The pIC50 was less than 5.10.

And the pIC50 [28]?
The pIC50 was less than 5.10.

And the pIC50 [29]?
The pIC50 was less than 5.10.

What about the pIC50 [30] of the same compound?
The pIC50 was less than 5.10.

What about the pIC50 [31] of the same compound?
Its pIC50 is less than 5.10.

And the pIC50 [32]?
Its pIC50 is less than 5.10.

And the pIC50 [33]?
Its pIC50 is less than 5.10.

What about the pIC50 [34] of the same compound?
Its pIC50 is less than 5.10.

What about the pIC50 [35] of the same compound?
The pIC50 was less than 5.10.

And the pIC50 [36]?
Its pIC50 is less than 5.10.

And the pIC50 [37]?
Its pIC50 is less than 5.10.

What about the pIC50 [38] of the same compound?
The pIC50 was less than 5.10.

And the pIC50 [39]?
The pIC50 was less than 5.10.

What about the pIC50 [40] of the same compound?
Its pIC50 is less than 5.10.

And the pIC50 [41]?
Its pIC50 is less than 5.10.

And the pIC50 [42]?
The pIC50 was less than 5.10.

What about the pIC50 [43] of the same compound?
Its pIC50 is less than 5.10.

What about the pIC50 [44] of the same compound?
Its pIC50 is less than 5.10.

What about the pIC50 [45] of the same compound?
The pIC50 was 5.83.

What about the pIC50 [46] of the same compound?
The pIC50 was less than 5.10.

What about the pIC50 [47] of the same compound?
Its pIC50 is less than 5.10.

And the pIC50 [48]?
The pIC50 was less than 5.10.

And the pIC50 [49]?
The pIC50 was less than 5.10.

And the pIC50 [50]?
Its pIC50 is less than 5.10.

What about the pIC50 [51] of the same compound?
The pIC50 was less than 5.10.

And the pIC50 [52]?
The pIC50 was less than 5.10.
